{"source": "patent US20230263822A1", "about": "“MODULATION OF FACTOR 11 EXPRESSION” (Ionis Pharmaceuticals, Inc., priority 2008, published 2023)", "note": "Strand notation (5' to 3'): a small letter for the sugar, then the base; units joined by * are phosphorothioate-linked, units joined directly phosphodiester-linked; [ ] holds rarer units or linkages, { } end groups; capitals alone tell only the bases. e = 2'-O-(2-methoxyethyl) (MOE); [5mC] = 5-methylcytosine; d = 2'-deoxy (DNA)"}
{"system": "human Factor 11 mRNA", "experiment": "Antisense inhibition of human Factor 11 in HepG2 cells, lipofectin, 75 nM (Example 1)", "type": "cell-based", "conditions": "75 nM antisense oligonucleotide, ~24 h, relative to untreated control cells, gapmers targeted to SEQ ID NO: 1", "procedure": "(§1) Antisense oligonucleotides targeted to a Factor 11 nucleic acid were tested for their effects on Factor 11 mRNA in vitro. Cultured HepG2 cells at a density of 10,000 cells per well were transfected using lipofectin reagent with 75 nM antisense oligonucleotide. After a treatment period of approximately 24 hours, RNA was isolated from the cells and Factor 11 mRNA levels were measured by quantitative real time PCR. Factor 11 mRNA levels were adjusted according to total RNA content, as measured by RIBOGREEN. Results are presented as percent inhibition of Factor 11, relative to untreated control cells.\n(§2) The chimeric antisense oligonucleotides in Tables 1 and 2 were designed as 5-10-5 MOE gapmers. The gapmers are 20 nucleotides in length, wherein the central gap segment is comprised of 10 2′-deoxynucleotides and is flanked on both sides (in the 5′ and 3′ directions) by wings comprising 5 nucleotides each. Each nucleotide in the 5′ wing segment and each nucleotide in the 3′ wing segment has a 2′-MOE modification. The internucleoside linkages throughout each gapmer are phosphorothioate (P=S) linkages. All cytidine residues throughout each gapmer are 5-methylcytidines. “Target start site” indicates the 5′-most nucleotide to which the gapmer is targeted. “Target stop site” indicates the 3′-most nucleotide to which the gapmer is targeted. Each gapmer listed in Table 1 is targeted to SEQ TD NO: 1 (GENBANK Accession No. NM_000128.3) and each gapmer listed in Table 2 is targeted to SEQ TD NO: 2 (GENBANK Accession No. NT_022792.17, truncated from 19598000 to 19624000).", "units": {"% inhibition": "%"}}
{"substance": "413466 (antisense eA*e[5mC]*eA*eT*eA*dA*dA*dT*dG*dT*d[5mC]*dT*dT*dT*dG*eT*eT*eG*e[5mC]*eA) [compound 413466]", "% inhibition": 79}
{"substance": "413470 (antisense eG*eT*eT*eA*eT*dA*dG*dT*dT*dT*dA*dT*dG*d[5mC]*d[5mC]*e[5mC]*eT*eT*e[5mC]*eA) [compound 413470]", "% inhibition": 72}
{"substance": "413471 (antisense eT*e[5mC]*eA*eG*eT*dA*dG*dA*d[5mC]*dA*dA*dA*dT*dG*dT*eT*eA*e[5mC]*eG*eA) [compound 413471]", "% inhibition": 67}
{"substance": "413472 (antisense eT*eG*eG*eG*eT*dG*dT*dG*d[5mC]*dT*dT*d[5mC]*dA*dG*dT*eA*eG*eA*e[5mC]*eA) [compound 413472]", "% inhibition": 99}
{"substance": "413473 (antisense eA*eG*e[5mC]*e[5mC]*eA*dG*dA*dT*dT*dA*dG*dA*dA*dA*dG*eT*eG*e[5mC]*eA*e[5mC]) [compound 413473]", "% inhibition": 80}
{"substance": "413475 (antisense eG*e[5mC]*e[5mC]*eA*eT*dT*d[5mC]*d[5mC]*dT*dG*dG*dG*dA*dA*dA*eA*eG*eA*eA*eG) [compound 413475]", "% inhibition": 80}
{"substance": "413477 (antisense eA*e[5mC]*eT*eG*eA*dA*dA*d[5mC]*d[5mC]*dA*dG*dA*dA*dA*dG*eA*eG*e[5mC]*eT*eT) [compound 413477]", "% inhibition": 54}
{"substance": "413478 (antisense eA*eG*eA*eA*eT*dG*dG*d[5mC]*dA*dG*dA*dA*d[5mC]*dA*d[5mC]*eT*eG*eG*eG*eA) [compound 413478]", "% inhibition": 53}
{"substance": "413479 (antisense eT*eG*eT*e[5mC]*eA*dT*dG*dG*dT*dA*dA*dA*dA*dT*dG*eA*eA*eG*eA*eA) [compound 413479]", "% inhibition": 40}
{"substance": "413480 (antisense eA*eA*eG*eA*eA*dA*dT*d[5mC]*dA*dG*dT*dG*dT*d[5mC]*dA*eT*eG*eG*eT*eA) [compound 413480]", "% inhibition": 71}
{"substance": "413483 (antisense eA*eA*e[5mC]*eT*eG*dG*d[5mC]*dA*dG*d[5mC]*dG*dG*dA*d[5mC]*dG*eG*e[5mC]*eA*eT*eT) [compound 413483]", "% inhibition": 78}
{"substance": "413484 (antisense e[5mC]*e[5mC]*eT*eT*eA*dA*dT*dG*dT*dG*dT*dA*dT*d[5mC]*d[5mC]*eA*eG*eA*eG*eA) [compound 413484]", "% inhibition": 74}
{"substance": "413485 (antisense eT*eG*eG*eT*eG*dG*dT*dA*d[5mC]*dA*d[5mC]*dT*d[5mC]*dA*dT*eT*eA*eT*e[5mC]*e[5mC]) [compound 413485]", "% inhibition": 68}
{"substance": "413486 (antisense eG*eG*e[5mC]*eT*eT*dG*dA*dT*dT*dT*dT*dG*dG*dT*dG*eG*eT*eA*e[5mC]*eA) [compound 413486]", "% inhibition": 83}
{"substance": "413487 (antisense eA*eA*e[5mC]*eG*eA*dT*d[5mC]*d[5mC]*dT*dG*dG*dG*d[5mC]*dT*dT*eG*eA*eT*eT*eT) [compound 413487]", "% inhibition": 57}
{"substance": "413488 (antisense eA*e[5mC]*eA*eG*eG*dT*dG*dT*d[5mC]*dT*d[5mC]*dT*dG*dA*dG*eT*eG*eG*eG*eT) [compound 413488]", "% inhibition": 49}
{"substance": "413489 (antisense e[5mC]*eA*e[5mC]*eT*eG*dG*dT*dT*dT*d[5mC]*d[5mC]*dA*dA*dT*dG*eA*eT*eG*eG*eA) [compound 413489]", "% inhibition": 68}
{"substance": "413490 (antisense e[5mC]*eT*eA*e[5mC]*e[5mC]*d[5mC]*d[5mC]*dA*dT*dA*dG*dA*dA*dA*d[5mC]*eA*eG*eT*eG*eA) [compound 413490]", "% inhibition": 57}
{"substance": "413491 (antisense eT*eT*eA*eG*eG*dT*dG*dA*d[5mC]*dT*d[5mC]*dT*dA*d[5mC]*d[5mC]*e[5mC]*e[5mC]*eA*eT*eA) [compound 413491]", "% inhibition": 73}
{"substance": "413492 (antisense eA*eG*eA*e[5mC]*eA*d[5mC]*dG*d[5mC]*dA*dA*dA*dA*dT*d[5mC]*dT*eT*eA*eG*eG*eT) [compound 413492]", "% inhibition": 68}
{"substance": "413493 (antisense eT*eT*eT*e[5mC]*eT*dT*dG*dA*dA*d[5mC]*d[5mC]*d[5mC]*d[5mC]*dA*dA*eA*eG*eA*eA*eA) [compound 413493]", "% inhibition": 65}
{"substance": "413494 (antisense eG*eT*eG*eG*eT*dT*dT*d[5mC]*d[5mC]*dA*dG*dT*dT*dT*d[5mC]*eA*eA*e[5mC]*eA*eA) [compound 413494]", "% inhibition": 70}
{"substance": "413495 (antisense eT*eT*eG*eG*e[5mC]*dT*dT*dT*d[5mC]*dT*dG*dG*dA*dG*dA*eG*eT*eA*eT*eT) [compound 413495]", "% inhibition": 58}
{"substance": "413496 (antisense eG*eG*e[5mC]*eA*e[5mC]*dA*dG*dA*dT*d[5mC]*dA*dT*d[5mC]*dT*dT*eA*eT*eG*eG*eG) [compound 413496]", "% inhibition": 72}
{"substance": "413497 (antisense eG*eA*eT*eT*e[5mC]*d[5mC]*dT*dG*d[5mC]*dA*dA*dA*dA*dT*dG*eG*eT*eG*eA*eA) [compound 413497]", "% inhibition": 39}
{"substance": "413498 (antisense eG*e[5mC]*eA*eG*eA*dG*dT*dG*dT*dA*dG*dA*dT*dT*d[5mC]*e[5mC]*eT*eG*e[5mC]*eA) [compound 413498]", "% inhibition": 60}
{"substance": "413499 (antisense eA*eT*e[5mC]*eA*eT*dT*dT*dT*dT*d[5mC]*dA*dG*dG*dA*dA*eA*eG*eT*eG*eT) [compound 413499]", "% inhibition": 52}
{"system": "human Factor 11 mRNA", "experiment": "Antisense inhibition of human Factor 11 in HepG2 cells, lipofectin, 75 nM (Example 1)", "type": "cell-based", "conditions": "75 nM antisense oligonucleotide, ~24 h, relative to untreated control cells, gapmers targeted to SEQ ID NO: 2", "procedure": "as §1, §2", "units": {"% inhibition": "%"}}
{"substance": "413500 (antisense eG*eT*eG*eA*eG*dA*d[5mC]*dA*dA*dA*dT*d[5mC]*dA*dA*dG*eA*e[5mC]*eT*eT*e[5mC]) [compound 413500]", "% inhibition": 15}
{"substance": "413501 (antisense eT*eT*eA*eG*eT*dT*dT*dA*d[5mC]*dT*dG*dA*d[5mC]*dA*d[5mC]*eT*eA*eA*eG*eA) [compound 413501]", "% inhibition": 23}
{"substance": "413502 (antisense e[5mC]*eT*eG*e[5mC]*eT*dT*dT*dA*dT*dG*dA*dA*dA*dA*dA*e[5mC]*e[5mC]*eA*eA*e[5mC]) [compound 413502]", "% inhibition": 22}
{"substance": "413503 (antisense eA*eT*eA*e[5mC]*e[5mC]*dT*dA*dG*dT*dA*d[5mC]*dA*dA*dT*dG*eT*eA*eA*eA*eT) [compound 413503]", "% inhibition": 29}
{"substance": "413504 (antisense eG*eG*e[5mC]*eT*eT*dG*dT*dG*dT*dG*dT*dG*dG*dT*d[5mC]*eA*eA*eT*eA*eT) [compound 413504]", "% inhibition": 54}
{"substance": "413505 (antisense eT*eG*eG*eG*eA*dA*dA*dG*d[5mC]*dT*dT*dT*d[5mC]*dA*dA*eT*eA*eT*eT*e[5mC]) [compound 413505]", "% inhibition": 57}
{"substance": "413506 (antisense eA*eT*eG*eG*eA*dA*dT*dT*dG*dT*dG*d[5mC]*dT*dT*dA*eT*eG*eA*eG*eT) [compound 413506]", "% inhibition": 57}
{"substance": "413507 (antisense eT*eT*eT*e[5mC]*eA*dA*dG*d[5mC]*dT*d[5mC]*dA*dG*dG*dA*dT*eG*eG*eG*eA*eA) [compound 413507]", "% inhibition": 55}
{"substance": "413508 (antisense eG*eT*eT*eG*eG*dT*dA*dA*dA*dA*dT*dG*d[5mC]*dA*dA*e[5mC]*e[5mC]*eA*eA*eA) [compound 413508]", "% inhibition": 64}
{"substance": "413509 (antisense eT*e[5mC]*eA*eG*eG*dA*d[5mC]*dA*d[5mC]*dA*dA*dG*dT*dA*dA*eA*e[5mC]*e[5mC]*eT*eG) [compound 413509]", "% inhibition": 66}
{"substance": "413510 (antisense eT*eG*e[5mC]*eA*eA*dG*d[5mC]*dT*dG*dG*dA*dA*dA*dT*dA*eA*eA*eA*eG*e[5mC]) [compound 413510]", "% inhibition": 17}
{"substance": "413511 (antisense eT*eG*e[5mC]*e[5mC]*eA*dA*dT*dT*dT*dA*dA*dA*dA*dG*dT*eG*eT*eA*eG*e[5mC]) [compound 413511]", "% inhibition": 43}
{"substance": "413512 (antisense eA*eT*eA*eT*eT*dT*d[5mC]*dA*dA*dA*dA*dT*d[5mC]*d[5mC]*dA*eG*eT*eA*eT*eG) [compound 413512]", "% inhibition": 39}
{"substance": "413513 (antisense eT*eT*e[5mC]*eT*eG*dA*dA*dT*dA*dT*dA*d[5mC]*dA*dA*dA*eT*eT*eA*eA*eT) [compound 413513]", "% inhibition": 27}
{"substance": "413514 (antisense eT*eT*eT*eA*e[5mC]*dT*dA*dT*dG*dA*dA*dA*dA*dT*d[5mC]*eT*eA*eA*eA*eT) [compound 413514]", "% inhibition": 5}
{"substance": "413515 (antisense eG*eG*eT*eA*eT*d[5mC]*d[5mC]*dT*dG*dA*dG*dT*dG*dA*dG*eA*eT*e[5mC]*eT*eA) [compound 413515]", "% inhibition": 36}
{"substance": "413516 (antisense e[5mC]*e[5mC]*eA*eG*e[5mC]*dT*dA*dT*d[5mC]*dA*dG*dG*dA*dA*dA*eA*eT*eT*e[5mC]*e[5mC]) [compound 413516]", "% inhibition": 50}
{"substance": "413517 (antisense eA*eA*eA*eG*e[5mC]*dT*dA*dT*dT*dG*dG*dA*dG*dA*d[5mC]*eT*e[5mC]*eA*eG*eA) [compound 413517]", "% inhibition": 51}
{"substance": "413518 (antisense eA*eT*eG*eG*eA*dA*dT*d[5mC]*dT*d[5mC]*dT*dT*d[5mC]*dA*dT*eT*eT*e[5mC]*eA*eT) [compound 413518]", "% inhibition": 49}
